Results from patent publication US11203592B2, “Inhibitors of indoleamine 2,3-dioxygenase and methods of their use” (BRISTOL-MYERS SQUIBB COMPANY, priority 2017, dated 2021).
Where a name gives a salt, the structure may show the parent alone.

Biological target: T1, human IDO1 (Homo sapiens, UniProt P14902)
T1 construct: expressed in transfected cells
Test: human IDO1/HEK293 cell IDO inhibition assay
Format: cell-based
Conditions: HEK293 cells stably expressing human IDO1, 20 hours incubation, absorbance at 490 nm; read-out: IDO1 HEK Human IC50
Protocol: HEK293 cells were transfected with a pCDNA-based mammalian expression vector harboring human IDO1 cDNA (NM 002164.2) by electroporation. They were cultured in medium (DMEM with 10% FBS) containing 1 mg/ml G418 for two weeks. Clones of HEK293 cells that stably expressed human IDO1 protein were selected and expanded for IDO inhibition assay.
The human IDO1/HEK293 cells were seeded at 10,000 cells per 50 μL per well with RPMI/phenol red free media contains 10% FBS in a 384-well black wall clear bottom tissue culture plate (Matrix Technologies LLC) 100 nL of certain concentration of compound was then added to each well using ECHO liquid handling systems. The cells were incubated for 20 hours in 37° C. incubator with 5% CO2.
The compound treatments were stopped by adding trichloroacetic acid (Sigma-Aldrich) to a final concentration at 0.2%. The cell plate was further incubated at 50° C. for 30 minute. The equal volume supernatant (20 μL) and 0.2% (w/v) Ehrlich reagent (4-dimethylaminobenzaldehyde, Sigma-Aldrich) in glacial acetic acid were mixed in a new clear bottom 384-well plate. This plate was then incubated at room temperature for 30 minute. The absorbance at 490 nm was measured on Envision plate reader.
Compound IC50 values were calculated using the counts of 500 nM of a reference standard treatment as one hundred percent inhibition, and counts of no compound but DMSO treatment as zero percent inhibition.

T1 sequence (P14902 whole entry): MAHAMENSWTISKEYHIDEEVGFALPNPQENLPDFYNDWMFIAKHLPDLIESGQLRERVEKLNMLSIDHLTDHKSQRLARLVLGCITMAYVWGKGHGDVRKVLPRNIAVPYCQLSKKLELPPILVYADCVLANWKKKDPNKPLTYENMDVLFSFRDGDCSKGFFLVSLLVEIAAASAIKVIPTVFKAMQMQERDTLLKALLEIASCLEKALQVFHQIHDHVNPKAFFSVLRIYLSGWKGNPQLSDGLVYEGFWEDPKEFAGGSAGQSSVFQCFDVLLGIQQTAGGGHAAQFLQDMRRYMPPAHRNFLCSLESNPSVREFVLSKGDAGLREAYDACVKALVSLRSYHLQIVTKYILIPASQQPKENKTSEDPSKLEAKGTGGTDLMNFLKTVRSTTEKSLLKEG

| IC50 | SMILES |
| --- | --- |
| 37 nM | Cc1cccc2c1[C@]1(CC[C@@H](C(C)C(=O)Nc3ccc(Cl)cc3)CC1)OC2 (mixture of isomers) [Example 7, rac-N-(4-Chlorophenyl)-2-((1r,4r)-7′-methyl-3′H-spiro[cyclohexane-1,1′-isobenzofuran]-4-yl)propanamide] |
| 24 nM | Cc1cccc2c1[C@]1(CC[C@H](C(C)C(=O)Nc3ccc(Cl)cc3)CC1)OC2 (mixture of isomers) [Example 8, rac-N-(4-chlorophenyl)-2-((1s,4s)-7′-methyl-3′H-spiro[cyclohexane-1,1′-isobenzofuran]-4-yl)propanamide] |
| 617 nM | Cc1cccc2c1[C@]1(CC[C@H](C(C)C(=O)NC34CC5CC(CC(C5)C3)C4)CC1)OC2 (mixture of isomers) [Example 9, rac-N-((1R,3S)-adamantan-1-yl)-2-((1S,4s)-7′-methyl-3′H-spiro[cyclohexane-1,1′-isobenzofuran]-4-yl)propanamide] |
| 980 nM | Cc1cccc2c1[C@]1(CC[C@H](C(C)C(=O)NC3(C)CCCCC3)CC1)OC2 (mixture of isomers) [Example 10, rac-2-((1s,4s)-7′-methyl-3′H-spiro[cyclohexane-1,1′-isobenzofuran]-4-yl)-N-(1-methylcyclohexyl)propanamide] |
| 5 nM | CC(C(=O)Nc1ccc(Cl)cc1)[C@H]1CC[C@@]2(CC1)COc1ccccc12 (mixture of isomers) [Example 14, rac-N-(4-Chlorophenyl)-2-((1′r,4′r)-2H-spiro[benzofuran-3,1′-cyclohexan]-4′-yl)propanamide] |
| 59 nM | CC(NC(=O)c1ccc(Cl)cc1)[C@H]1CC[C@@]2(CC1)COc1ccccc12 (mixture of isomers) [Example 17, rac-N-(1-((1′r,4′r)-2H-Spiro[benzofuran-3,1′-cyclohexan]-4′-yl)ethyl)-4-chlorobenzamide] |
| 61 nM | CC(C(=O)Nc1ccc(Cl)cc1)[C@H]1CC[C@]2(CC1)COc1ccccc12 (mixture of isomers) [Example 20, rac-N-(4-Chlorophenyl)-2-((1′s,4′s)-2H-spiro[benzofuran-3,1′-cyclohexan]-4′-yl)propanamide] |
| 59 nM | CC(NC(=O)c1ccc(Cl)cc1)[C@H]1CC[C@]2(CC1)COc1ccccc12 (mixture of isomers) [Example 21, rac-N-(1-((1′s,4′s)-2H-Spiro[benzofuran-3,1′-cyclohexan]-4′-yl)ethyl)-4-chlorobenzamide] |
| 117 nM | CC(c1nc2ncc(Cl)cc2[nH]1)[C@H]1CC[C@@]2(CC1)COc1ccccc12 (mixture of isomers) [Example 24, rac-2-(1-((1′r,4′r)-2H-Spiro[benzofuran-3,1′-cyclohexan]-4′-yl)ethyl)-6-chloro-1H-imidazo[4,5-b]pyridine TFA Salt] |
| 93 nM | CC(NC(=O)c1ccc(C#N)cc1)[C@H]1CC[C@]2(CC1)COc1ccccc12 (mixture of isomers) [Example 27, rac-N-(1-((1′s,4′s)-2H-Spiro[benzofuran-3,1′-cyclohexan]-4′-yl)ethyl)-4-cyanobenzamide] |
| 68 nM | Cc1cccc2c1OC(CO)[C@]21CC[C@H](CC(=O)Nc2ccc(Cl)cc2)CC1 (mixture of isomers) [Example 29, rac-N-(4-Chlorophenyl)-2-((1′r,2R,4′R)-2-(hydroxymethyl)-7-methyl-2H-spiro[benzofuran-3,1′-cyclohexan]-4′-yl)acetamide] |
| 363 nM | Cc1cccc2c1OC(CO)[C@]21CC[C@@H](CC(=O)Nc2ccc(Cl)cc2)CC1 (mixture of isomers) [Example 30, rac-N-(4-Chlorophenyl)-2-((1′s,2R,4′S)-2-(hydroxymethyl)-7-methyl-2H-spiro[benzofuran-3,1′-cyclohexan]-4′-yl)acetamide] |
| 8 nM | C[C@@H](C(=O)Nc1ccc(Cl)cc1)[C@H]1CC[C@@]2(CC1)COc1ccccc12 [Example 16, (R)—N-(4-Chlorophenyl)-2-((1′R,4′r)-2H-spiro[benzofuran-3,1′-cyclohexan]-4′-yl)propanamide] |
| 9 nM | C[C@@H](NC(=O)c1ccc(Cl)cc1)[C@H]1CC[C@@]2(CC1)COc1ccccc12 [Example 18, N—((R)-1-((1′R,4′r)-2H-Spiro[benzofuran-3,1′-cyclohexan]-4′-yl)ethyl)-4-chlorobenzamide] |
| 914 nM | C[C@H](NC(=O)c1ccc(Cl)cc1)[C@H]1CC[C@@]2(CC1)COc1ccccc12 [Example 19, N—((S)-1-((1'S,4′r)-2H-Spiro[benzofuran-3,1′-cyclohexan]-4′-yl)ethyl)-4-chlorobenzamide] |
| 142 nM | C[C@@H](c1nc2ccc(Cl)cc2[nH]1)[C@H]1CC[C@@]2(CC1)COc1ccccc12 [Example 22, 2-((R)-1-((3R,4′r)-2H-spiro[benzofuran-3,1′-cyclohexan]-4′-yl)ethyl)-6-chloro-1H-benzo[d]imidazole] |
| 254 nM | C[C@H](c1nc2ccc(Cl)cc2[nH]1)[C@H]1CC[C@@]2(CC1)COc1ccccc12 [Example 23, 2-((S)-1-((3S,4′r)-2H-spiro[benzofuran-3,1′-cyclohexan]-4′-yl)ethyl)-6-chloro-1H-benzo[d]imidazole] |
| 794 nM | C[C@@H](c1nc2ncc(Cl)cc2[nH]1)[C@H]1CC[C@@]2(CC1)COc1ccccc12 [Example 25, 2-((R)-1-((3R,4′r)-2H-spiro[benzofuran-3,1′-cyclohexan]-4′-yl)ethyl)-6-chloro-1H-imidazo[4,5-b]pyridine] |
| 43 nM | C[C@H](c1nc2ncc(Cl)cc2[nH]1)[C@H]1CC[C@@]2(CC1)COc1ccccc12 [Example 26, 2-((S)-1-((3S,4′r)-2H-spiro[benzofuran-3,1′-cyclohexan]-4′-yl)ethyl)-6-chloro-1H-imidazo[4,5-b]pyridine] |
